Data set [1] deals with FOLR1 (Homo sapiens, UniProt P15328). Nature of the data set: ELISA assay of FOLR1 binding. An excerpt:
FIG. 5 is a diagram of ELISA assay of FOLR1 binding of heterobiligands.

Data set [2] is described as follows: Plasma protein binding, human plasma. Type of data set: in vitro ADME. The method, then: (§1) HTD 96 a/b regenerated cellulose membrane strips with mass cutoff of 12-14 kDa were soaked in ultra-pure water at room temperature for 1 hour. Each swelled membrane was then soaked in 20:80 ethanol:water for 20 minutes.
(§2) Just prior to the experiment, the membranes were re-soaked in ultra-pure water. Plasma was prepared by thawing under cold water. The plasma was centrifuged to remove any clots and pH was adjusted to 7.0-8.0. Test articles and control compounds were diluted to 2 μM. The dialysis device was loaded by transferring 150 μL of the test article (in triplicate) to the donor side. The dialysis device was placed in a humidified incubator at 37° C. with 5% CO2 in a shaking platform that rotated slowly for 4 hours. After incubation, 50 μL of the supernatant was taken from both sides and analyzed by LC-MS/MS.

Data set [3] can be described thus: Plasma protein binding, CD-1 mouse plasma. Type of data set: in vitro ADME. The protocol: as §1, §2
The target of data set [4] is human recombinant NEP (Homo sapiens, UniProt P08473). Briefly: NEP enzymatic cleavage assay (MALDI, HPLC). The conditions noted are these: for NEP-mediated cleavage: MALDI. In kind it is biochemical. The protocol: In order to test the susceptibility of GFK and MVK linkers to NEP-mediated cleavage, the peptide (Folate-hshta-Lys(MPBA)-Gly-Phe-Lys(DOTA) (SEQ ID NO:6)) was incubated with human recombinant NEP and analyzed the solution for the presence of cleaved adducts. MALDI was utilized to monitor the cleavage of a PCC heterobiligand that contains a NEP protease recognizable sequence (G-F-K). The PCC concentration was constant and the NEP concentration was titrated down from 10 nM to 1 nM, 0.1 nM, 0.01 nM, and no NEP. The NEP-mediated cleaved adduct was identified by mass. 10 μM PCC containing the GFK linker was combined with varying amounts of NEP. […] Below 0.1 nM no cleavage was observed. • Folate-hshta-Lys(MPBA)-Gly-Phe-Lys(DOTA) (SEQ ID NO:6) • Molecular weight 2231.42
The NEP-mediated cleavage was also monitored by HPLC. In agreement with the MALDI spectra, the HPLC chromatograms show depletion of the parent brush-border heterobiligand (retention time 17.1 minutes), dose-dependent on the amount of NEP spiked into the sample (10 nM, 1 nM, 0.1 nM, 0.01 nM, and no NEP). An appearance of a new peak (retention time 16.5 minutes) in concert with the depletion of the starting material is presumed to be the cleaved folate-containing peptide.
In order to test the specificity of NEP, a non-cleavable linker (PEG3) was also assayed.
To reduce the radioactive dose to the kidney, Indi ^177Lu-7327 was constructed to incorporate a GFK linker that is susceptible to cleavage by enzymes found predominately in the kidney's brush border. These enzymes cleave off the radionuclide-chelator complex, which is quickly eliminated by the kidney for excretion in the urine. The zinc metalloprotease neprilysin (NEP) is expressed with high abundance in the kidney. […] To confirm NEP-mediated cleavage of the GFK linker in Indi 7327, the peptide was incubated with recombinant human NEP at 37° C. for 1 h and analyzed by matrix-assisted laser desorption/ionization mass spectrometry (MALDI-MS) for the evolution of cleaved adducts (FIG. 42). […] The expected cleaved adduct (mass: 1283.16 m/z) appears in the samples containing 10, 1.0, and 0.1 nM NEP. […] Below 0.1 nM NEP, no cleavage was observed. In addition to confirming the selectivity of NEP for the GFK linker, it is also important to note that the remaining portions of the Indi 7327 were impervious to the enzyme.

Each structure is given as a SMILES string. Read-outs that look alike come from different tables or passages of the source. Starred links: 1 amine or outer side, 2 acyl side, 3 side chain; linkers in the order of their positions; H or OH if unused. Positions of bridges follow the written chain, without caps; N, C: chain ends. Non-standard residues stand in square brackets, D forms with d. Residues, ends and D or L forms follow the SMILES beside them. Triazole bridges read from a SMILES are 1,4-linked. *: point of attachment. DOTA = O=C(O)CN1CCN(CC(=O)O)CCN(CC(=O)*)CCN(CC(=O)O)CC1; Pteroyl = Nc1nc2ncc(CNc3ccc(C(=O)*)cc3)nc2c(=O)[nH]1; Biotin = O=C1N[C@H]2[C@H](CS[C@H]2CCCCC(=O)*)N1; PEG10 = NCCOCCOCCOCCOCCOCCOCCOCCOCCOCCOCCC(=O)O; Butanoyl(4-(4-MePh)) = Cc1ccc(CCCC(=O)*)cc1; Lys(N3) = [N-]=[N+]=NCCCC[C@H](N)C(=O)O; γGlu = O=C(O)[C@H](CCC(=O)[*:2])N[*:1]; PEG7 = NCCOCCOCCOCCOCCOCCOCCOCCC(=O)O; AEEEA = NCCOCCOCCOCC(=O)O; Pra = C#CC[C@H](N)C(=O)O; X1 = NOCC(=O)*

Chain of human recombinant NEP (P08473 whole entry): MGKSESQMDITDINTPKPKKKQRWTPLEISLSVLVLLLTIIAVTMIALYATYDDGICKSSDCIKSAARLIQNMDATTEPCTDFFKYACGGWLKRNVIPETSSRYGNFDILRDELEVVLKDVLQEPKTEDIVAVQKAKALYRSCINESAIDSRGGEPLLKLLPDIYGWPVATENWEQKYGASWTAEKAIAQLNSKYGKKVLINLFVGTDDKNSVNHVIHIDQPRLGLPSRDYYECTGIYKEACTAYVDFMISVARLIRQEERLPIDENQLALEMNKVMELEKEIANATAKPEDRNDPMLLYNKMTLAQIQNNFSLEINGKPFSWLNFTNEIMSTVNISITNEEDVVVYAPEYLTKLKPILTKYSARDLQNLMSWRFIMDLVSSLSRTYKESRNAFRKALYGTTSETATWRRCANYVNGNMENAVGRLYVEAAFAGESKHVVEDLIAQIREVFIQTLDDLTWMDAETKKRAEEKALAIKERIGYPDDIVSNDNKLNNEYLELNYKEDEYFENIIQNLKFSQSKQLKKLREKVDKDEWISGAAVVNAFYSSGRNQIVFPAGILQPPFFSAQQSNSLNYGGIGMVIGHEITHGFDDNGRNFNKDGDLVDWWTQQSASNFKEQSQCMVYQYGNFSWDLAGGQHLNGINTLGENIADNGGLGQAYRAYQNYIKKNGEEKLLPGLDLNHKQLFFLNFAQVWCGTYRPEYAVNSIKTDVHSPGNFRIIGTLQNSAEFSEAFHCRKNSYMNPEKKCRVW
Chain of FOLR1 (P15328 25-234): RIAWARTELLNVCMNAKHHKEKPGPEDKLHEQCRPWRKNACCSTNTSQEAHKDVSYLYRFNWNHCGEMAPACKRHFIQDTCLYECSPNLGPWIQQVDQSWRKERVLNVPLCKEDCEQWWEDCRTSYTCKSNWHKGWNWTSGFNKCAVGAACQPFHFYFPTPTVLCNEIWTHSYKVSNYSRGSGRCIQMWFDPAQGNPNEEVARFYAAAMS

For orientation: EC50 means the midpoint of the concentration-response curve. In the case of `C[C@H](O)[C@H]1NC(=O)[C@@H](Cc2c[nH]cn2)NC(=O)[C@@H](CO)NC(=O)[C@@H](Cc2c[nH]cn2)NC(=O)[C@@H](NC(=O)CNC(=O)CC[C@H](NC(=O)c2ccc(NCc3cnc4nc(N)[nH]c(=O)c4n3)cc2)C(=O)O)Cc2cn(nn2)CCCC[C@@H](C(=O)NCCOCCOCCOCCOCCOCCOCCOCCOCCOCCOCCC(=O)NCCOCCOCCOCCOCCOCCOCCOCCOCCOCCOCCC(=O)N[C@@H](CCCCNC(=O)CCCC[C@@H]2SC[C@@H]3NC(=O)N[C@@H]32)C(N)=O)NC(=O)[C@@H](C)NC1=O` [Folate-Gly-hshta] ({Pteroyl-γGlu}-G[Pra][dH][dS][dH][dT][dA][Lys(N3)][PEG10][PEG10]K(Biotin)-NH2; triazole 2-8), in data set [1] (read-out: EC50 (ELISA, FOLR1)), the EC50 came out at 0.9 nM.

For `C[C@H](O)[C@H]1NC(=O)[C@@H](Cc2c[nH]cn2)NC(=O)[C@@H](CO)NC(=O)[C@@H](Cc2c[nH]cn2)NC(=O)[C@@H](NC(=O)CCOCCOCCOCCOCCOCCOCCOCCNC(=O)CC[C@H](NC(=O)c2ccc(NCc3cnc4nc(N)[nH]c(=O)c4n3)cc2)C(=O)O)Cc2cn(nn2)CCCC[C@@H](C(=O)NCCOCCOCCOCCOCCOCCOCCOCCOCCOCCOCCC(=O)NCCOCCOCCOCCOCCOCCOCCOCCOCCOCCOCCC(=O)N[C@@H](CCCCNC(=O)CCCC[C@@H]2SC[C@@H]3NC(=O)N[C@@H]32)C(N)=O)NC(=O)[C@@H](C)NC1=O` [Folate-PEG7-hshta] ({Pteroyl-γGlu-PEG7}-[Pra][dH][dS][dH][dT][dA][Lys(N3)][PEG10][PEG10]K(Biotin)-NH2; triazole 1-7), the EC50 in data set [1] (read-out: EC50 (ELISA, FOLR1)) was found to be 1 nM.

Regarding `C[C@H](O)[C@H]1NC(=O)[C@@H](Cc2c[nH]cn2)NC(=O)[C@@H](CO)NC(=O)[C@@H](Cc2c[nH]cn2)NC(=O)[C@@H](NC(=O)[C@H]2CCCN2C(=O)CC[C@H](NC(=O)c2ccc(NCc3cnc4nc(N)[nH]c(=O)c4n3)cc2)C(=O)O)Cc2cn(nn2)CCCC[C@@H](C(=O)NCCOCCOCCOCCOCCOCCOCCOCCOCCOCCOCCC(=O)NCCOCCOCCOCCOCCOCCOCCOCCOCCOCCOCCC(=O)N[C@@H](CCCCNC(=O)CCCC[C@@H]2SC[C@@H]3NC(=O)N[C@@H]32)C(N)=O)NC(=O)[C@@H](C)NC1=O` [Folate-Pro-hshta] ({Pteroyl-γGlu}-[dP][Pra][dH][dS][dH][dT][dA][Lys(N3)][PEG10][PEG10]K(Biotin)-NH2; triazole 2-8), the EC50 in data set [1] (read-out: EC50 (ELISA, FOLR1)) worked out at 0.9 nM.

`C[C@H](O)[C@H]1NC(=O)[C@@H](Cc2ccc(O)cc2)NC(=O)[C@@H](CCCNC(=N)N)NC(=O)[C@@H](CCC(=O)O)NC(=O)[C@@H](CC(=O)O)NC(=O)[C@@H](NC(=O)[C@H](Cc2cn(CCOCCOCCOCCNC(=O)CC[C@H](NC(=O)c3ccc(NCc4cnc5nc(N)[nH]c(=O)c5n4)cc3)C(=O)O)nn2)NC(=O)CCOCCOCCOCCOCCOCCOCCOCCOCCOCCOCCNC(=O)CCOCCOCCOCCOCCOCCOCCOCCOCCOCCOCCNC(=O)CCCC[C@@H]2SC[C@@H]3NC(=O)N[C@@H]32)Cc2cn(nn2)CCCC[C@@H](C(N)=O)NC1=O` [Pra(Az4-PEG3-folate)-deryt]: in data set [1] (read-out: EC50 (ELISA, FOLR1)), the EC50 was found to be 0.27 nM.

Turning to `C[C@H](O)[C@H]1NC(=O)[C@@H](Cc2cnc[nH]2)NC(=O)[C@@H](CO)NC(=O)[C@@H](Cc2cnc[nH]2)NC(=O)[C@@H](NC(=O)CC[C@H](NC(=O)c2ccc(NCc3cnc4nc(N)[nH]c(=O)c4n3)cc2)C(=O)O)Cc2cn(nn2)CCCC[C@@H](C(=O)NCCOCCOCCOCC(=O)N[C@@H](CCCCNC(=O)CON)C(N)=O)NC(=O)[C@@H](C)NC1=O` [compound 0328, Fol-hshta-PEG3-Lys(AO)] ({Pteroyl-γGlu}-[Pra][dH][dS][dH][dT][dA][Lys(N3)][AEEEA]K(X1)-NH2; triazole 1-7), the fraction unbound at 4 h, 2 μM came out at 0.57 in data set [2] (human, plasma, AO-containing constructs, (FB), read-out: Plasma % Bound, Hu) and 0.798 in data set [3] (CD-1, mouse, plasma, AO-containing constructs, (FB), read-out: Plasma % Bound, Mu). Moreover, the recovery at 4 h, 2 μM in data set [2] (human, plasma, AO-containing constructs, (FB), read-out: Plasma protein binding % Recovery, Hu) was found to be 85%; in data set [3] (CD-1, mouse, plasma, AO-containing constructs, (FB), read-out: Plasma protein binding % Recovery, Mu), 115%.

For the compound `C[C@H](O)[C@H]1NC(=O)[C@@H](Cc2c[nH]cn2)NC(=O)[C@@H](CO)NC(=O)[C@@H](Cc2c[nH]cn2)NC(=O)[C@@H](NC(=O)CC[C@H](NC(=O)c2ccc(NCc3cnc4nc(N)[nH]c(=O)c4n3)cc2)C(=O)O)Cc2cn(nn2)CCCC[C@@H](C(=O)NCCOCCOCCOCC(=O)N[C@@H](CCCCNC(=O)CN2CCN(CC(=O)O)CCN(CC(=O)O)CCN(CC(=O)O)CC2)C(N)=O)NC(=O)[C@@H](C)NC1=O` [compound 1189, Fol-hshta-PEG3-Lys(DOTA)] ({Pteroyl-γGlu}-[Pra][dH][dS][dH][dT][dA][Lys(N3)][AEEEA]K(DOTA)-NH2; triazole 1-7), the recovery in data set [2] (human plasma, read-out: Plasma protein binding % Recovery, Hu) was 102%; in data set [3] (CD-1 mouse plasma, read-out: Plasma protein binding % Recovery, Mu), 97.4%. Also, the fraction unbound in data set [2] (human, plasma, human plasma, read-out: Plasma % Bound, Hu (converted)) was 0.54; in data set [3] (CD-1 mouse plasma, read-out: Plasma % Bound, Mu (converted)), 0.705.

For the compound `Cc1ccc(CCCC(=O)NCCCC[C@H](NC(=O)[C@@H]2CCCCn3cc(nn3)C[C@H](NC(=O)CC[C@H](NC(=O)c3ccc(NCc4cnc5nc(N)[nH]c(=O)c5n4)cc3)C(=O)O)C(=O)N[C@H](Cc3cnc[nH]3)C(=O)N[C@H](CO)C(=O)N[C@H](Cc3cnc[nH]3)C(=O)N[C@H]([C@H](C)O)C(=O)N[C@H](C)C(=O)N2)C(=O)NCC(=O)N[C@@H](Cc2ccccc2)C(=O)N[C@@H](CCCCNC(=O)CON)C(=O)O)cc1` [compound 3304, Fol-hshta-Lys(4-MPBA)-Gly-Phe-Lys(AO)] ({Pteroyl-γGlu}-[Pra][dH][dS][dH][dT][dA][Lys(N3)]K(Butanoyl(4-(4-MePh)))GFK(X1)-OH; triazole 1-7), the “in vitro Assay Data (NEP assay)” value in data set [4] (Table 7, AO-containing constructs) was “Cleavage of —G—F—K-”.

For `C[C@H](O)[C@H]1NC(=O)[C@@H](Cc2c[nH]cn2)NC(=O)[C@@H](CO)NC(=O)[C@@H](Cc2c[nH]cn2)NC(=O)[C@@H](NC(=O)CC[C@H](NC(=O)c2ccc(NCc3cnc4nc(N)[nH]c(=O)c4n3)cc2)C(=O)O)Cc2cn(nn2)CCCC[C@@H](C(=O)NCC(=O)N[C@@H](Cc2ccccc2)C(=O)N[C@@H](CCCCNC(=O)CN2CCN(CC(=O)O)CCN(CC(=O)O)CCN(CC(=O)O)CC2)C(=O)O)NC(=O)[C@@H](C)NC1=O` [compound 7327, folate-hshta-Gly-Phe-Lys(DOTA)] ({Pteroyl-γGlu}-[Pra][dH][dS][dH][dT][dA][Lys(N3)]GFK(DOTA)-OH; triazole 1-7), the “site of neprilysin cleavage” value in data set [4] was “cleaved at the amide bond between Gly and Phe”. For the same compound, the NEP-mediated cleavage result in data set [4] (1 nM and 0.1 nM NEP) is given as “partial cleavage”; in data set [4] (10 nM NEP), “complete consumption of the peptide”; in data set [4] (below 0.1 nM NEP), “no cleavage”. The “in vitro Assay Data (NEP assay)” value in data set [4] (Table 2) was “Cleavage of -G-F-K-”.

On to `C[C@H](O)[C@H]1NC(=O)[C@@H](Cc2ccc(O)cc2)NC(=O)[C@@H](CCCNC(=N)N)NC(=O)[C@@H](CCC(=O)O)NC(=O)[C@@H](CC(=O)O)NC(=O)[C@@H](NC(=O)COCCOCCOCCNC(=O)CCCC[C@@H]2SC[C@@H]3NC(=O)N[C@@H]32)Cc2cn(nn2)CCCC[C@@H](C(N)=O)NC1=O` [deryt] ({Biotin-AEEEA}-[Pra][dD][dE][dR][dY][dT][Lys(N3)]-NH2; triazole 1-7), for which, in data set [1] (PCC alone, read-out: EC50), the EC50 came out at 10000 nM.
